# Assay results published in patent US10166142B2, “Small molecule delivery with implantable therapeutic device” (ForSight Vision4, Inc., priority 2011, dated 2019).
# Where a name gives a salt, the structure may show the parent alone. Read-outs that look alike come from different tables or passages of the source.
# What was measured:
# [1] = Solubility of dorzolamide suspension formulation, Example A; type: physicochemical; details: aqueous buffer, thermodynamic from solid; PBS+0.02% sodium azide, pH 7.4, 37C; read-out: dissolved concentration (i.e., solubility)
# [2] = Diffusion coefficient in water (literature value / estimate by MW scaling); type: physicochemical; details: estimated, at 37C
# From the text: If the reservoir solution is aqueous or has a viscosity similar to water, the value for the diffusion coefficient of the therapeutic agent (TA) in water at the temperature of interest may be used. […] (Molokhia et al, Exp Eye Res 2008): DTA,37C=DBSA,20C(η20C/η37C)(MWBSA/MWTA)^1/3 where
# MW refers to the molecular weight of either BSA or the test compound and η is the viscosity of water.
# Small molecules have a diffusion coefficient similar to fluorescein (MW=330, D=4.8 to 6 e-6 cm^2/s from Stay, M S et al. Pharm Res 2003, 20(1), pp. 96-102). For example, the small molecule may comprise a glucocorticoid such as triamcinolone acetonide having a molecular weight of about 435.
# (§1) The volume of the device was approximately 25 uL.
# as §1
# [3] = cited from earlier work
# [4] = system: laser photocoagulation treatment-induced Grade IV choroidal neovascularization (CNV) Lesions; details: intravitreal injection, all doses tested (Z. Yao et al., ARVO 2009); cited from earlier work
# [5] = rabbit and monkey (Gaudreault et al), cited from earlier work
molecule,measurement,setting,value
"CCN[C@H]1C[C@H](C)S(=O)(=O)c2sc(S(N)(=O)=O)cc21 [Dorzolamide, dorzolamide Hydrochloride]",solubility,[1],9000 µg/mL
"O=C(c1ccccc1)c1ccc2n1CCC2C(=O)O (centres unmarked) [Ketorolac, Ketorolac Tromethamine]",diffusion coefficient,[2],6×10^−6 cm^2/s
"CN(Cc1cnc2nc(N)nc(N)c2n1)c1ccc(C(=O)N[C@@H](CCC(=O)O)C(=O)O)cc1 [Methotrexate, methotrexate]",diffusion coefficient,[2],5×10^−6 cm^2/s
ranibizumab [Lucentis],half-life in vitreous,[3]; human eye (Lucentis package insert),~220 h
same,Half-life,"[3]; human vitreous, model parameter for FIGS. 119 to 124",220 h
same,development of Grade IV CNV lesions,[4],completely inhibit
same,half-life in vitreous,[5],about two to four days
same,half-life in vitreous,[5]; listed as ranibizumab,approximately 3 days
